Results on 4 compounds are retold here after patent publication US7132012B2, “Phthalocyanine compound, ink, ink jet recording method and image forming method” (Fuji Photo Film Co., Ltd., priority 2004, dated 2006).

This series can be described thus: Color toner image: light fastness property (xenon light). The series is classed as physicochemical. The settings on record: xenon light 85,000 lux, 5 days. The protocol:
As for each of the phthalocyanine compounds of the invention (compounds 101, 102, 103 and 107), 3 parts by weight of the compound and 100 parts by weight of a resin for toner [styrene-acrylic acid ester copolymer; trade name HIMER TB-1000F (manufactured by Sanyo Chemical Industries, Ltd.)] were mixed and ground in a ball mill. Then, the mixture was heated to 150° C. to be molten and mixed. After cooling, the mixture was coarsely crushed using a hammer mill, and then, finely pulverized by a pulverizer of an air jet system. The resulting particles were further classified, and 1 to 20 micro was selected, resulting in a toner. To 10 parts of the toner, 900 parts of carrier iron powder (trade name EFV250/400; manufactured by Nippon Iron Powder) was uniformly mixed, resulting in a developer. Similarly, each sample of the comparative coloring agents shown in Table-7 were prepared in the same manner, except that the dye was used in an amount of 3 parts by weight, and the pigment was used in an amount of 6 parts by weight. By the use of these developers, copying was carried out by means of a dry ordinary paper electrophotographic copier [trade name NP-5000; manufactured by CANON, Corp.].
Reflected images (images on paper) and transmitted images (OHP images) were formed on paper and OHP sheets, respectively, with a developer using a color toner containing the compounds of the invention in accordance with the foregoing image forming method, and the evaluation tests were conducted in the following manner. Incidentally, the amount of the toner deposited was evaluated in the range of 0.7±0.05 (mg/cm^2).
The light fastness property was evaluated in the following manner. The image density Ci immediately after recording was measured, and thereafter, the image was irradiated with xenon light (85,000 lux) by means of a weather meter (Atlas C. 165), for 5 days. Then, the image density Cf was measured again, and the coloring matter residual ratio ([…]) was determined from the difference in image density between before and after xenon light irradiation. The image density was measured by means of a reflection densitometer (X-Rite 310TR). In Table-7, the case where the coloring matter residual ratio was 90% or more is indicated with ∘; less than 90 to 80%, Δ; and less than 80%, x.
Consider `CNc1ccc(O)c2c1C(=O)c1c(O)ccc(NC)c1C2=O` [Comparative dye 5], for which the Light fastness property entry is “Δ (less than 90 to 80%, Δ)”.

On to `Cc1ccc(Nc2ccc(Nc3ccc(C)cc3)c3c2C(=O)c2c(Nc4ccc(C)cc4)ccc(Nc4ccc(C)cc4)c2C3=O)cc1` [Comparative dye 6], for which the Light fastness property entry is “Δ (less than 90 to 80%, Δ)”.

For the compound C.I. Solvent Blue 38, the Light fastness property entry was “∘ (the case where the coloring matter residual ratio was 90% or more is indicated with ∘)”.

As for C.I. Solvent Blue 70, the Light fastness property entry was “∘ (the case where the coloring matter residual ratio was 90% or more is indicated with ∘)”.
